Laboratory results taken from patent publication US20250326772A1, “MRGPRX2 ANTAGONISTS, PHARMACEUTICAL COMPOSITION INCLUDING MRGPRX2 ANTAGONIST, AND METHOD OF TREATING MRGPRX2-MEDIATED DISEASE OR DISORDER” (KYORIN PHARMACEUTICAL CO., LTD., priority 2024, published 2025).

target: T1, MRGPRX2 (Homo sapiens, UniProt Q96LB1); assay: MRGPRX2 reporter cell assay (NFAT-RE luciferase, Substance P stimulation); assay type: cell-based; settings: U2OS cells stably transfected with MRGPRX2 and NFAT-RE luciferase reporter; Substance P at EC80
T1 sequence (Q96LB1 1-330): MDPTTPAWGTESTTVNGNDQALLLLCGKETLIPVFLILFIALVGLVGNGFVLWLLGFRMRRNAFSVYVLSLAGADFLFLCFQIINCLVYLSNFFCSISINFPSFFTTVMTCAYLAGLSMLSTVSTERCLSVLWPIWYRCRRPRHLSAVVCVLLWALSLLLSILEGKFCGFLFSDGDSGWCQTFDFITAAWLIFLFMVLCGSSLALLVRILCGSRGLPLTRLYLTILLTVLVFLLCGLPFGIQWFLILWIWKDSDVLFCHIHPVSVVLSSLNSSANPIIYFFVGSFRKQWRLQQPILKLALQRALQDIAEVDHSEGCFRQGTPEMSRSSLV
Method in brief: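 U2OS cells stably expressing MRGPRX2 and an NFAT-RE luc2P reporter, pre-incubated 30 min at 37° C with compound (0.5% DMSO), then stimulated with Substance P at EC80 for 6 h. Luminescence after ONE-GLO; percent inhibition fitted by four-parameter logistic to IC50.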

Row | IC50 | Structure (SMILES)
1 | 3.2 nM | COC(=O)N[C@@H]1COc2c(-c3[nH]c4ncccc4c3-c3cn(C)nc3C#N)c(C(F)F)nn2C1 [EX. 517]
2 | 4.4 nM | Cn1cc(-c2c(-c3c(C(F)F)nn4c3OC[C@@H](O)C4)[nH]c3ncccc23)c(OC(F)F)n1 [EX. 527, (S)-3-(3-(3-(difluoromethoxy)-1-methyl-1H-pyrazol-4-yl)-1H-pyrrolo[2,3-b]pyridin-2-yl)-2-(difluoromethyl)-6,7-dihydro-5H-pyrazolo[5,1-b] [1,3]oxazin-6-ol]
3 | 2.3 nM | CO[C@@H]1COc2c(-c3[nH]c4ncccc4c3-c3cn(C)nc3OC(F)F)c(C(F)F)nn2C1 [EX. 531]
4 | 2.1 nM | Cn1cc(-c2c(-c3c(C(F)F)nn4c3OC[C@@H](OCCO)C4)[nH]c3ncccc23)c(OC(F)F)n1 [EX. 534]
5 | 2 nM | Cn1cc(-c2c(-c3c(C(F)F)nn4c3OC[C@@H](OCC(C)(C)O)C4)[nH]c3ncccc23)c(OC(F)F)n1 [EX. 535]

same assay, conditions: U2OS cells stably transfected with MRGPRX2 and NFAT-RE luciferase reporter; Substance P at EC80; class symbols

Row | IC50 | Structure (SMILES)
6 | < 10 nM | Cc1nn2c(c1-c1[nH]c3ncccc3c1-c1cccnc1OC(F)F)OC[C@@H](O)C2 [EX. 496]
7 | < 10 nM | CO[C@@H]1COc2c(-c3[nH]c4ncccc4c3-c3cccnc3OC(F)F)c(C)nn2C1 [EX. 497]
8 | < 10 nM | Cc1nn2c(c1-c1[nH]c3ncccc3c1-c1cccnc1OC(F)F)OC[C@@H](OCCO)C2 [EX. 498]
9 | < 10 nM | CO[C@@H]1COc2c(-c3[nH]c4ncccc4c3-c3cccnc3OC(F)F)c(C(F)F)nn2C1 [EX. 499]
10 | < 10 nM | Cn1cc(-c2c(-c3c(C(F)F)nn4c3OC[C@@H](OCCO)C4)[nH]c3ncccc23)c(C#N)n1 [EX. 500]
11 | < 10 nM | Cn1cc(-c2c(-c3c(C(F)F)nn4c3OC[C@@H](OCC(C)(C)O)C4)[nH]c3ncccc23)c(C#N)n1 [EX. 501]
12 | < 10 nM | CCO[C@@H]1COc2c(-c3[nH]c4ncccc4c3-c3cn(C)nc3C#N)c(C(F)F)nn2C1 [EX. 502]
13 | < 10 nM | CNC(=O)O[C@@H]1COc2c(-c3[nH]c4ncccc4c3-c3cn(C)nc3C#N)c(C(F)F)nn2C1 [EX. 503]
14 | < 10 nM | Cc1cc(-c2c(-c3c(C)nn4c3OC[C@@H](OCCO)C4)[nH]c3ncccc23)c(C#N)s1 [EX. 504]
15 | < 10 nM | Cc1cc(-c2c(-c3c(C)nn4c3OC[C@@H](NC(=O)C3CC3)C4)[nH]c3ncccc23)c(C#N)s1 [EX. 505]
16 | < 10 nM | CO[C@@H]1COc2c(-c3[nH]c4ncccc4c3-c3cc(C)sc3C#N)c(C(F)F)nn2C1 [EX. 506]
17 | < 10 nM | Cc1cc(-c2c(-c3c(C(F)F)nn4c3OC[C@@H](OCCO)C4)[nH]c3ncccc23)c(C#N)s1 [EX. 507]
18 | < 10 nM | N#Cc1ncccc1-c1c(-c2c(C(F)F)nn3c2OC[C@@H](OCCO)C3)[nH]c2ncccc12 [EX. 508]
19 | < 10 nM | CC(C)(O)CO[C@@H]1COc2c(-c3[nH]c4ncccc4c3-c3cccnc3C#N)c(C(F)F)nn2C1 [EX. 509]
20 | < 10 nM | COC(=O)N[C@@H]1COc2c(-c3[nH]c4ncccc4c3-c3cccnc3OC(F)F)c(C(F)F)nn2C1 [EX. 512, methyl(S)-(3-(3-(2-(difluoromethoxy)pyridin-3-yl)-1H-10 pyrrolo[2,3-b]pyridin-2-yl)-2-(difluoromethyl)-6,7-dihydro-5H-pyrazolo[5,1-b] [1,3]oxazin-6-yl) carbamate]
21 | < 10 nM | COC(=O)N[C@@H]1COc2c(-c3[nH]c4ncccc4c3-c3cccnc3OC(F)F)c(C)nn2C1 [EX. 513]
22 | < 10 nM | COC(=O)N[C@@H]1COc2c(-c3[nH]c4ncccc4c3-c3cccnc3C#N)c(C(F)F)nn2C1 [EX. 514]
23 | < 10 nM | COC(=O)N[C@@H]1COc2c(-c3[nH]c4ncccc4c3-c3ccncc3C#N)c(C(F)F)nn2C1 [EX. 515]
24 | < 10 nM | COC(=O)N[C@@H]1COc2c(-c3[nH]c4ncccc4c3-c3cc(C)sc3C#N)c(C(F)F)nn2C1 [EX. 516]
25 | < 10 nM | COC(=O)N[C@@H]1COc2c(-c3[nH]c4ncccc4c3-c3cn(C)nc3C#N)c(C(F)F)nn2C1 [EX. 517]

Row | IC50 | Structure (SMILES)
26 | < 10 nM | COC(=O)N[C@@H]1COc2c(-c3[nH]c4ncccc4c3-c3csnc3OC(F)F)c(C(F)F)nn2C1 [EX. 518]
27 | < 10 nM | COC(=O)N[C@@H]1COc2c(-c3[nH]c4ncsc4c3-c3cn(C)nc3OC(F)F)c(C(F)F)nn2C1 [EX. 519]
28 | < 10 nM | Cn1cc(-c2c(-c3c(C(F)F)nn4c3OC[C@@H](NS(C)(=O)=O)C4)[nH]c3ncsc23)c(OC(F)F)n1 [EX. 520, (S)—N-(3-(6-(3-(difluoromethoxy)-1-methyl-1H-pyrazol-4-yl)-4H-pyrrolo[2,3-d]thiazol-5-yl)-2-(difluoromethyl)-6,7-dihydro-5H-pyrazolo[5,1-b] [1,3]oxazin-6-yl) methanesulfonamide]
29 | < 10 nM | CS(=O)(=O)N[C@@H]1COc2c(-c3[nH]c4ncccc4c3-c3cccnc3OC(F)F)c(C(F)F)nn2C1 [EX. 521]
30 | < 10 nM | CS(=O)(=O)N[C@@H]1COc2c(-c3[nH]c4ncccc4c3-c3cccnc3C#N)c(C(F)F)nn2C1 [EX. 522]
31 | < 10 nM | CS(=O)(=O)N[C@@H]1COc2c(-c3[nH]c4ncccc4c3-c3ccncc3C#N)c(C(F)F)nn2C1 [EX. 523]
32 | < 10 nM | CS(=O)(=O)N[C@@H]1COc2c(-c3[nH]c4ncccc4c3-c3csnc3OC(F)F)c(C(F)F)nn2C1 [EX. 524]
33 | < 10 nM | Cc1cc(-c2c(-c3c(C(F)F)nn4c3OC[C@@H](NS(C)(=O)=O)C4)[nH]c3ncccc23)c(C#N)s1 [EX. 525]
34 | < 10 nM | Cn1cc(-c2c(-c3c(C(F)F)nn4c3OC[C@@H](NS(C)(=O)=O)C4)[nH]c3ncccc23)c(OC(F)F)n1 [EX. 526, (S)—N-(3-(3-(3-(difluoromethoxy)-1-methyl-1H-pyrazol-4-yl)-1H-pyrrolo[2,3-b]pyridin-2-yl)-2-(difluoromethyl)-6,7-dihydro-5H-pyrazolo[5,1-b] [1,3]oxazin-6-yl) methanesulfonamide]
35 | < 10 nM | Cn1cc(-c2c(-c3c(C(F)F)nn4c3OC[C@@H](O)C4)[nH]c3ncccc23)c(OC(F)F)n1 [EX. 527, (S)-3-(3-(3-(difluoromethoxy)-1-methyl-1H-pyrazol-4-yl)-1H-pyrrolo[2,3-b]pyridin-2-yl)-2-(difluoromethyl)-6,7-dihydro-5H-pyrazolo[5,1-b] [1,3]oxazin-6-ol]
36 | < 10 nM | Cn1cc(-c2c(-c3c(C(F)(F)F)nn4c3OCCC4)[nH]c3ncccc23)c(OC(F)F)n1 [EX. 528]
37 | < 10 nM | Cn1cc(-c2c(-c3c(C(F)F)nn4c3OC[C@@H](OC(F)F)C4)[nH]c3ncccc23)c(OC(F)F)n1 [EX. 529]
38 | < 10 nM | COC(=O)CO[C@@H]1COc2c(-c3[nH]c4ncccc4c3-c3cn(C)nc3OC(F)F)c(C(F)F)nn2C1 [EX. 530]
39 | < 10 nM | CO[C@@H]1COc2c(-c3[nH]c4ncccc4c3-c3cn(C)nc3OC(F)F)c(C(F)F)nn2C1 [EX. 531]
40 | < 10 nM | CCO[C@@H]1COc2c(-c3[nH]c4ncccc4c3-c3cn(C)nc3OC(F)F)c(C(F)F)nn2C1 [EX. 532]
41 | < 10 nM | COCCO[C@@H]1COc2c(-c3[nH]c4ncccc4c3-c3cn(C)nc3OC(F)F)c(C(F)F)nn2C1 [EX. 533]
42 | < 10 nM | Cn1cc(-c2c(-c3c(C(F)F)nn4c3OC[C@@H](OCCO)C4)[nH]c3ncccc23)c(OC(F)F)n1 [EX. 534]
43 | < 10 nM | Cn1cc(-c2c(-c3c(C(F)F)nn4c3OC[C@@H](OCC(C)(C)O)C4)[nH]c3ncccc23)c(OC(F)F)n1 [EX. 535]
44 | < 10 nM | Cn1cc(-c2c(-c3c(C(F)F)nn4c3OC[C@@H](OCCNS(C)(=O)=O)C4)[nH]c3ncccc23)c(OC(F)F)n1 [EX. 536]
45 | < 10 nM | CC(=O)NCCO[C@@H]1COc2c(-c3[nH]c4ncccc4c3-c3cn(C)nc3OC(F)F)c(C(F)F)nn2C1 [EX. 537]

Row | IC50 | Structure (SMILES)
46 | < 10 nM | CN(C)CCO[C@@H]1COc2c(-c3[nH]c4ncccc4c3-c3cn(C)nc3OC(F)F)c(C(F)F)nn2C1 [EX. 538]
47 | < 10 nM | CCNC(=O)O[C@@H]1COc2c(-c3[nH]c4ncccc4c3-c3cn(C)nc3OC(F)F)c(C(F)F)nn2C1 [EX. 539]
48 | < 10 nM | CNC(=O)O[C@@H]1COc2c(-c3[nH]c4ncccc4c3-c3cn(C)nc3OC(F)F)c(C(F)F)nn2C1 [EX. 540]
49 | < 10 nM | CO[C@@H]1COc2c(-c3[nH]c4ncccc4c3-c3cn(C)nc3OC(F)F)c(C)nn2C1 [EX. 541]
50 | < 10 nM | Cc1nn2c(c1-c1[nH]c3ncccc3c1-c1cn(C)nc1OC(F)F)OC[C@@H](OCCO)C2 [EX. 542]
51 | < 10 nM | Cn1cc(-c2c(-c3c(C(F)F)nn4c3OC[C@@H](N)C4)[nH]c3ncccc23)c(OC(F)F)n1 [EX. 543]
52 | < 10 nM | CC(=O)N[C@@H]1COc2c(-c3[nH]c4ncccc4c3-c3cn(C)nc3OC(F)F)c(C(F)F)nn2C1 [EX. 544]
53 | < 10 nM | CCc1nn2c(c1-c1[nH]c3ncccc3c1-c1cn(C)nc1OC(F)F)OC[C@@H](NS(C)(=O)=O)C2 [EX. 545]
54 | < 10 nM | COC(=O)N[C@@H]1COc2c(-c3[nH]c4ncccc4c3-c3cn(C)nc3OC(F)F)c(C)nn2C1 [EX. 546]
55 | < 10 nM | Cc1nn2c(c1-c1[nH]c3ncccc3c1-c1cn(C)nc1OC(F)F)OC[C@@H](NS(C)(=O)=O)C2 [EX. 547]
56 | < 10 nM | Cn1cc(-c2c(-c3c(C(F)F)nn4c3OC[C@@H](NC(=O)[C@@H]3C[C@@H]3F)C4)[nH]c3ncccc23)c(OC(F)F)n1 [EX. 549]
57 | < 10 nM | Cn1cc(-c2c(-c3c(C(F)F)nn4c3OC[C@@H](NC(=O)[C@H]3C[C@@H]3F)C4)[nH]c3ncccc23)c(OC(F)F)n1 [EX. 550]
58 | < 10 nM | Cn1cc(-c2c(-c3c(C(F)F)nn4c3OC[C@@H](NC(=O)[C@@H]3C[C@H]3F)C4)[nH]c3ncccc23)c(OC(F)F)n1 [EX. 551]
59 | < 10 nM | Cn1cc(-c2c(-c3c(C(F)F)nn4c3OC[C@@H](NC(=O)[C@@H]3CC3(F)F)C4)[nH]c3ncccc23)c(OC(F)F)n1 [EX. 552]
60 | < 10 nM | Cn1cc(-c2c(-c3c(C(F)F)nn4c3OC[C@@H](NC(=O)[C@H]3CC3(F)F)C4)[nH]c3ncccc23)c(OC(F)F)n1 [EX. 553]
61 | < 10 nM | Cn1cc(-c2c(-c3c(C(F)F)nn4c3OC[C@@H](NC(=O)C3CC(F)(F)C3)C4)[nH]c3ncccc23)c(OC(F)F)n1 [EX. 554]
62 | < 10 nM | C[C@@H](O)CC(=O)N[C@@H]1COc2c(-c3[nH]c4ncccc4c3-c3cn(C)nc3OC(F)F)c(C(F)F)nn2C1 [EX. 555]
63 | < 10 nM | C[C@H](O)CC(=O)N[C@@H]1COc2c(-c3[nH]c4ncccc4c3-c3cn(C)nc3OC(F)F)c(C(F)F)nn2C1 [EX. 556]
